Experimental data taken from patent US20240174723A1, “STAPLED ANTIMICROBIAL PEPTIDES (STAMPS) AND USES THEREOF” (Lytica Therapeutics, Inc., priority 2021, published 2024).
Values after ≈ are worked out from the molar mass of the structure shown. Positions of bridges follow the written chain, without caps; N, C: chain ends. Non-standard residues stand in square brackets, D forms with d. Residues, ends and D or L forms follow the SMILES beside them. Phe(4-CF3) = N[C@@H](Cc1ccc(C(F)(F)F)cc1)C(=O)O; Phe(4-F) = N[C@@H](Cc1ccc(F)cc1)C(=O)O; S5 = C=CCCC[C@](C)(N)C(=O)O; Dab = NCC[C@H](N)C(=O)O

Tests used:
P. aeruginosa = assay type: cell-based, Pseudomonas aeruginosa
Outline: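 Broth microdilution adapted from CLSI in MHB or cation-adjusted MHB; log-phase P. aeruginosa at 5×10^5 CFU/ml final with serially diluted stapled peptides. Incubated 20-24 h at 37 °C; MIC is the lowest concentration without visible growth.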

A. baumannii = assay type: cell-based, Acinetobacter baumannii
Outline: (§1)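 Minimum inhibitory concentrations of stapled peptides were determined by a microbroth dilution method derived from CLSI, using a final inoculum of 5×10^5 CFU/ml and 20-24 h incubation at 37 °C.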

in vitro [1] = assay type: cell-based; conditions: human
Method: Cell culture: RPTEC were maintained in MEM media supplemented with growth factors. HEPG2 cell line was maintained in Eagle's Minimum Essential Medium (EMEM) supplemented with fetal bovine serum to a final concentration of 10%.
90 minute cytotoxicity assay: Cells were plated in a 96-well format, and after overnight incubation, media was replaced with fresh media. Serial dilutions of StAMPs from a 5 mg/mL water stock, or vehicle, were added to the cells in a final volume of 100 μl. After incubating at 37° C. for 90 min, 50 μl of cell culture media was transferred to a clear 96-well plate, incubated with 50 μl of lactate dehydrogenase (LDH) assay reagent for 10 min, and absorbance measured at 490 nm on a microplate reader.
Renal toxicity was measured after 90 minutes of incubation, while liver toxicity was measured after 48 hours of incubation with StAMPs. N/A=not tested. The following apply to all peptides (i.e., StAMPs) listed in Tables A-C: Crosslinks (X^1—X^2 and X^3—X^4): (alk); N-terminus: —NH2; C-terminus: amidated with —NH2; counterion: Cl^−. The following apply to all peptides (i.e., StAMPs) listed in Table D: Crosslinks (X^1—X^2 and X^3—X^4): (alk); N-terminus: —NH2; C-terminus: as shown in table; counterion: Cl^−.
StAMP Micelle Formulation: DSPE-MPEG(2000) was suspended in buffered saline at 50-100 mg/mL overnight. StAMP stock solutions at 5-20 mg/mL in buffered saline were prepared and equal volumes of micelle and StAMP stock solution were mixed at the desired StAMP:Lipid ratio. Suspensions were allowed to sit for 5-10 minutes at room temperature before being used in in vitro and in vivo assays.
In Table E, the StAMP is StAMP 4 (Table A) and “Lipid”=DSPE-MPEG(2000).

in vitro [2] = assay type: cell-based; conditions: human, Inhibitory Concentration at 50% Cytotoxicity (IC50) Human Liver Cells (HepG2)
Outline: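 HepG2 cells in EMEM with 10% FBS, allowed 4 h to attach, then exposed to serial dilutions of StAMPs (from a 5 mg/mL water stock) or vehicle. After 48 h at 37 °C, viability read by CellTiter-Glo luminescence.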

K. pneumoniae = assay type: cell-based, Klebsiella pneumoniae
Outline: as §1

E. coli = assay type: cell-based, Escherichia coli
Outline: as §1

S. aureus = assay type: cell-based, Staphylococcus aureus
Outline: as §1

Row | SMILES | Minimum Inhibitory Concentration (MIC) P. aeruginosa (P. aeruginosa) | Minimum Inhibitory Concentration (MIC) A. baumannii (A. baumannii) | IC50 at 90 min (in vitro [1]) | IC50 at 48 hours (in vitro [2]) | Minimum Inhibitory Concentration (MIC) K. pneumoniae (K. pneumoniae) | Minimum Inhibitory Concentration (MIC) E. coli (E. coli) | Minimum Inhibitory Concentration (MIC) S. aureus (S. aureus)
1 | CC(C)[C@@H]1NC(=O)[C@@](C)(NC(=O)[C@H](C)NC(=O)[C@H](CCCCN)NC(=O)CNC(=O)[C@H](Cc2ccccc2)NC(=O)[C@H](CCCCN)NC(=O)[C@H](CCCCN)NC(=O)[C@H](CCCCN)NC(=O)[C@H](CO)NC(=O)[C@H](Cc2c[nH]cn2)NC(=O)[C@]2(C)CCCC=CCCC[C@](C)(NC(=O)CN)C(=O)NCC(=O)N[C@@H](CCCCN)C(=O)N[C@@H](Cc3ccccc3)C(=O)N2)CCCC=CCCC[C@@](C)(C(=O)N[C@@H](C)C(=O)N[C@@H](CCCCN)C(=O)N[C@@H](CCCCN)C(N)=O)NC(=O)[C@H](CCC(=O)O)NC(=O)[C@H](Cc2c[nH]c3ccccc23)NC1=O (single isomer, unassigned) [compound 10] | 4 µg/mL | 2 µg/mL | 110 µg/mL (≈ 41.3 µM) | 150 µg/mL (≈ 56.4 µM) | 4 µg/mL | 4 µg/mL | 32 µg/mL
2 | CC(C)[C@@H]1NC(=O)[C@@](C)(NC(=O)[C@H](C)NC(=O)[C@H](CCCCN)NC(=O)CNC(=O)[C@H](Cc2ccccc2)NC(=O)[C@H](CCCCN)NC(=O)[C@H](CCCCN)NC(=O)[C@H](CCCCN)NC(=O)[C@H](CO)NC(=O)[C@H](Cc2c[nH]cn2)NC(=O)[C@]2(C)CCCC=CCCC[C@](C)(NC(=O)CN)C(=O)NCC(=O)N[C@@H](CCCCN)C(=O)N[C@@H](Cc3ccccc3)C(=O)N2)CCCC=CCCC[C@@](C)(C(=O)N[C@@H](C)C(=O)N[C@@H](CCCCN)C(=O)N[C@@H](CCCCN)C(N)=O)NC(=O)[C@H](CCC(=O)O)NC(=O)CNC1=O [compound 1] (H-G[S5]GKF[S5]HSKKKFGKA[S5]VGE[S5]AKK-NH2; staple 2-6, 16-20) | 8 µg/mL | 2 µg/mL | 294 µg/mL (≈ 116 µM) | 391 µg/mL (≈ 154 µM) | 32 µg/mL | 2 µg/mL | >64 µg/mL
3 | CC(C)[C@@H]1NC(=O)[C@@](C)(NC(=O)[C@H](C)NC(=O)[C@H](CCCCN)NC(=O)CNC(=O)[C@H](Cc2ccccc2)NC(=O)[C@H](CCCCN)NC(=O)[C@H](CCCCN)NC(=O)[C@H](CCCCN)NC(=O)[C@H](CO)NC(=O)[C@H](CCCCN)NC(=O)[C@]2(C)CCCC=CCCC[C@](C)(NC(=O)CN)C(=O)NCC(=O)N[C@@H](CCCCN)C(=O)N[C@@H](Cc3ccccc3)C(=O)N2)CCCC=CCCC[C@@](C)(C(=O)N[C@@H](C)C(=O)N[C@@H](CCCCN)C(=O)N[C@@H](CCCCN)C(N)=O)NC(=O)[C@H](CCC(=O)O)NC(=O)CNC1=O [compound 2] (H-G[S5]GKF[S5]KSKKKFGKA[S5]VGE[S5]AKK-NH2; staple 2-6, 16-20) | 4 µg/mL | 2 µg/mL | 116 µg/mL (≈ 46 µM) | 143 µg/mL (≈ 56.7 µM) | 4 µg/mL | 2 µg/mL | 64 µg/mL
4 | CC(C)[C@@H]1NC(=O)[C@@](C)(NC(=O)[C@H](C)NC(=O)[C@H](CCCCN)NC(=O)CNC(=O)[C@H](Cc2ccccc2)NC(=O)[C@H](CCCCN)NC(=O)[C@H](CCCCN)NC(=O)[C@H](CCCCN)NC(=O)[C@H](CCCCN)NC(=O)[C@H](Cc2c[nH]cn2)NC(=O)[C@]2(C)CCCC=CCCC[C@](C)(NC(=O)CN)C(=O)NCC(=O)N[C@@H](CCCCN)C(=O)N[C@@H](Cc3ccccc3)C(=O)N2)CCCC=CCCC[C@@](C)(C(=O)N[C@@H](C)C(=O)N[C@@H](CCCCN)C(=O)N[C@@H](CCCCN)C(N)=O)NC(=O)[C@H](CCC(=O)O)NC(=O)CNC1=O [compound 3] (H-G[S5]GKF[S5]HKKKKFGKA[S5]VGE[S5]AKK-NH2; staple 2-6, 16-20) | 4 µg/mL | 4 µg/mL | > 200 µg/mL | > 200 µg/mL | 16 µg/mL | 4 µg/mL | >64 µg/mL
5 | CC(C)[C@@H]1NC(=O)[C@H](C(C)C)NC(=O)[C@@](C)(NC(=O)[C@H](C)NC(=O)[C@H](CCCCN)NC(=O)CNC(=O)[C@H](Cc2ccc(F)cc2)NC(=O)[C@H](CCCCN)NC(=O)[C@H](CCCCN)NC(=O)[C@H](CCCCN)NC(=O)[C@H](CCCCN)NC(=O)[C@H](Cc2c[nH]cn2)NC(=O)[C@]2(C)CCCC=CCCC[C@](C)(NC(=O)CN)C(=O)NCC(=O)N[C@@H](CCCCN)C(=O)N[C@@H](Cc3ccc(F)cc3)C(=O)N2)CCCC=CCCC[C@@](C)(C(=O)N[C@@H](C)C(=O)N[C@@H](CCCCN)C(=O)N[C@@H](CCCCN)C(N)=O)NC(=O)[C@H](CCC(=O)O)NC1=O [compound 29] (H-G[S5]GK[Phe(4-F)][S5]HKKKK[Phe(4-F)]GKA[S5]VVE[S5]AKK-NH2; staple 2-6, 16-20) | 4 µg/mL | 2 µg/mL | 86 µg/mL (≈ 32.4 µM) |  | 4 µg/mL | 2 µg/mL | >64 µg/mL
6 | CC(C)[C@@H]1NC(=O)[C@H](C(C)C)NC(=O)[C@@](C)(NC(=O)[C@H](C)NC(=O)[C@H](CCCCN)NC(=O)CNC(=O)[C@H](Cc2ccc(C(F)(F)F)cc2)NC(=O)[C@H](CCCCN)NC(=O)[C@H](CCCCN)NC(=O)[C@H](CCCCN)NC(=O)[C@H](CCCCN)NC(=O)[C@H](Cc2c[nH]cn2)NC(=O)[C@]2(C)CCCC=CCCC[C@](C)(NC(=O)CN)C(=O)NCC(=O)N[C@@H](CCCCN)C(=O)N[C@@H](Cc3ccc(C(F)(F)F)cc3)C(=O)N2)CCCC=CCCC[C@@](C)(C(=O)N[C@@H](C)C(=O)N[C@@H](CCCCN)C(=O)N[C@@H](CCCCN)C(N)=O)NC(=O)[C@H](CCC(=O)O)NC1=O [compound 30] (H-G[S5]GK[Phe(4-CF3)][S5]HKKKK[Phe(4-CF3)]GKA[S5]VVE[S5]AKK-NH2; staple 2-6, 16-20) | 4 µg/mL | 2 µg/mL | 17 µg/mL (≈ 6.18 µM) |  | 4 µg/mL | 2 µg/mL | 32 µg/mL
7 | CC(C)[C@@H]1NC(=O)[C@@](C)(NC(=O)[C@H](C)NC(=O)[C@H](CCCCN)NC(=O)CNC(=O)[C@H](Cc2ccccc2)NC(=O)[C@H](CCCCN)NC(=O)[C@H](CCCCN)NC(=O)[C@H](CCCCN)NC(=O)[C@H](CCCCN)NC(=O)[C@H](CCCCN)NC(=O)[C@]2(C)CCCC=CCCC[C@](C)(NC(=O)CN)C(=O)NCC(=O)N[C@@H](CCN)C(=O)N[C@@H](Cc3ccccc3)C(=O)N2)CCCC=CCCC[C@@](C)(C(=O)N[C@@H](C)C(=O)N[C@@H](CCCCN)C(=O)N[C@@H](CCCCN)C(N)=O)NC(=O)[C@H](CCC(=O)O)NC(=O)CNC1=O [compound 37] (H-G[S5]G[Dab]F[S5]KKKKKFGKA[S5]VGE[S5]AKK-NH2; staple 2-6, 16-20) | 2 µg/mL | 2 µg/mL | 113 µg/mL (≈ 44.6 µM) |  | 4 µg/mL | 2 µg/mL | >64 µg/mL
8 | CC(C)[C@@H]1NC(=O)[C@@](C)(NC(=O)[C@H](C)NC(=O)[C@H](CCCCN)NC(=O)CNC(=O)[C@H](Cc2ccccc2)NC(=O)[C@H](CCCCN)NC(=O)[C@H](CCCCN)NC(=O)[C@H](CCCCN)NC(=O)[C@H](CCN)NC(=O)[C@H](CCCCN)NC(=O)[C@]2(C)CCCC=CCCC[C@](C)(NC(=O)CN)C(=O)NCC(=O)N[C@@H](CCCCN)C(=O)N[C@@H](Cc3ccccc3)C(=O)N2)CCCC=CCCC[C@@](C)(C(=O)N[C@@H](C)C(=O)N[C@@H](CCCCN)C(=O)N[C@@H](CCCCN)C(N)=O)NC(=O)[C@H](CCC(=O)O)NC(=O)CNC1=O [compound 38] (H-G[S5]GKF[S5]K[Dab]KKKFGKA[S5]VGE[S5]AKK-NH2; staple 2-6, 16-20) | 2 µg/mL | 2 µg/mL | 117 µg/mL (≈ 46.1 µM) |  | 4 µg/mL | 2 µg/mL | >64 µg/mL
